Data reported in the supplement of paper PMC11451515.

System: P12-Ichikawa
Experiment: cell viability relative to DMSO control; higher = less cytotoxic
Details: 48 h
Outline: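 Viability is expressed as a percentage of DMSO wells within each plate, and cell-free wells serve as background. Seeding densities in the 1536-well plates (5 μl) were 500 cells/well for NOMO1 or SEM leukemia cells and 1000 cells/well for P12-Ichikawa. Each line was adapted for at least four passages in each medium. Library compounds in DMSO were pin-dosed at 47 μM to 0.79 nM (11 points, threefold), and CellTiter-Glo One luminescence was read after 48 h at 37°C.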

[1] = HPLM + 10% dialyzed FBS, 0.000781 µM
[2] = HPLM + 10% dialyzed FBS, 0.00234 µM
[3] = HPLM + 10% dialyzed FBS, 0.00702 µM
[4] = HPLM + 10% dialyzed FBS, 0.0211 µM
[5] = HPLM + 10% dialyzed FBS, 0.0632 µM
[6] = HPLM + 10% dialyzed FBS, 0.19 µM
[7] = HPLM + 10% dialyzed FBS, 0.569 µM
[8] = HPLM + 10% dialyzed FBS, 1.71 µM
[9] = HPLM + 10% dialyzed FBS, 5.12 µM
[10] = HPLM + 10% dialyzed FBS, 15.4 µM
[11] = HPLM + 10% dialyzed FBS, 46.1 µM
[12] = RPMI 5 mM glucose + 10% FBS, 0.000781 µM
[13] = RPMI 5 mM glucose + 10% FBS, 0.00234 µM
[14] = RPMI 5 mM glucose + 10% FBS, 0.00702 µM
[15] = RPMI 5 mM glucose + 10% FBS, 0.0211 µM
[16] = RPMI 5 mM glucose + 10% FBS, 0.0632 µM
[17] = RPMI 5 mM glucose + 10% FBS, 0.19 µM
[18] = RPMI 5 mM glucose + 10% FBS, 0.569 µM
[19] = RPMI 5 mM glucose + 10% FBS, 1.71 µM
[20] = RPMI 5 mM glucose + 10% FBS, 5.12 µM
[21] = RPMI 5 mM glucose + 10% FBS, 15.4 µM
[22] = RPMI 5 mM glucose + 10% FBS, 46.1 µM
[23] = RPMI 5 mM glucose + 10% dialyzed FBS, 0.000781 µM
[24] = RPMI 5 mM glucose + 10% dialyzed FBS, 0.00234 µM
[25] = RPMI 5 mM glucose + 10% dialyzed FBS, 0.00702 µM
[26] = RPMI 5 mM glucose + 10% dialyzed FBS, 0.0211 µM
[27] = RPMI 5 mM glucose + 10% dialyzed FBS, 0.0632 µM
[28] = RPMI 5 mM glucose + 10% dialyzed FBS, 0.19 µM
[29] = RPMI 5 mM glucose + 10% dialyzed FBS, 0.569 µM
[30] = RPMI 5 mM glucose + 10% dialyzed FBS, 1.71 µM
[31] = RPMI 5 mM glucose + 10% dialyzed FBS, 5.12 µM
[32] = RPMI 5 mM glucose + 10% dialyzed FBS, 15.4 µM
[33] = RPMI 5 mM glucose + 10% dialyzed FBS, 46.1 µM

Compound	cell viability [1]	cell viability [2]	cell viability [3]	cell viability [4]	cell viability [5]	cell viability [6]	cell viability [7]	cell viability [8]	cell viability [9]	cell viability [10]	cell viability [11]	cell viability [12]	cell viability [13]	cell viability [14]	cell viability [15]	cell viability [16]	cell viability [17]	cell viability [18]	cell viability [19]	cell viability [20]	cell viability [21]	cell viability [22]	cell viability [23]	cell viability [24]	cell viability [25]	cell viability [26]	cell viability [27]	cell viability [28]	cell viability [29]	cell viability [30]	cell viability [31]	cell viability [32]	cell viability [33]
C[C@@H]1C[C@H]2[C@@H]3\C=C(C)/C4=C/C5=C(C[C@]4(C)[C@H]3[C@@H](O)C[C@]2(C)[C@@]1(O)C(=O)COC(C)=O)C=N[N]5C6=CC=CC=C6	111%	107%	99.2%	91.8%	67.8%	61.6%	58.1%	58.7%	59.6%	51.4%	55.8%	123%	127%	98%	85.1%	62.3%	54.6%	45.6%	51.5%	49.2%	46.5%	46.9%	114%	99.7%	91.7%	72.2%	53.3%	44.1%	38%	39.5%	38.7%	38.1%	32.9%
FC(F)(F)c1ccc(Nc2nc3cc(Oc4ccnc(-c5ncc(C(F)(F)F)[nH]5)c4)ccc3[nH]2)cc1	118%	111%	115%	120%	122%	115%	117%	123%	118%	112%	71.3%	119%	119%	127%	123%	130%	122%	127%	137%	130%	111%	67.8%	–	–	–	–	–	–	–	–	–	–	–
Cc1ccc(-n2nc(C(C)(C)C)cc2NC(=O)Nc2ccc(OCCN3CCOCC3)c3ccccc23)cc1	106%	112%	113%	115%	111%	117%	119%	126%	114%	109%	102%	106%	107%	103%	97.7%	113%	112%	113%	117%	112%	88.7%	85.2%	105%	100%	112%	121%	109%	116%	125%	126%	116%	97.5%	104%
CCC[C@@H]1C[C@@H](C(=O)N[C@@H]([C@H]2O[C@H](SC)[C@H](O)[C@@H](O)[C@H]2O)[C@@H](C)O)N(C)C1.Cl	119%	113%	122%	111%	122%	125%	111%	98.8%	97.8%	106%	100%	119%	114%	106%	112%	119%	123%	89.9%	83%	96%	102%	101%	122%	117%	128%	140%	145%	108%	66.4%	70%	112%	95.9%	94.4%
CC[C@]1(O)C[C@H]2CN(CCC3=C([NH]C4=C3C=CC=C4)[C@@](C2)(C(=O)OC)C5=CC6=C(C=C5OC)N(C=O)[C@H]7[C@](O)([C@H](OC(C)=O)[C@]8(CC)\C=C/C[N@@]9CC[C@]67[C@H]89)C(=O)OC)C1	118%	117%	119%	82.3%	21.6%	17.7%	11%	10.2%	11.3%	9.28%	8.54%	115%	109%	112%	75.1%	19.5%	15.9%	9.98%	8.03%	8.69%	8.09%	6.94%	105%	108%	110%	106%	35.6%	34.6%	20.5%	12%	12.1%	12.8%	12.6%
Cc1[nH]c(/C=C2\C(=O)Nc3ccc([S+](=O)([O-])N(C)c4cccc(Cl)c4)cc32)c(C)c1C(=O)N1CCN(C)CC1	118%	130%	124%	119%	126%	127%	119%	110%	111%	76.7%	0.631%	–	–	–	–	–	–	–	–	–	–	–	–	–	–	–	–	–	–	–	–	–	–
CO/N=C(/C(=O)N[C@@H]1C(=O)N2C(C(=O)O)=C(Cn3ccc(=N)n3CCO)CS[C@H]12)c1csc(N)n1	121%	123%	125%	136%	135%	126%	134%	126%	141%	137%	125%	–	–	–	–	–	–	–	–	–	–	–	–	–	–	–	–	–	–	–	–	–	–
CCCCCCCCCCCC(CC1OC(=O)C1CCCCCC)OC(=O)C(CC(C)C)NC=O (centres undefined)	98.6%	110%	110%	105%	111%	107%	119%	107%	105%	84.2%	3.42%	105%	117%	114%	120%	118%	114%	114%	114%	103%	85.8%	10.6%	101%	107%	103%	108%	117%	112%	116%	112%	99.3%	87.2%	7.97%
